Experimental data taken from patent US9072717B2, “Cosmetic compositions containing alpha glucosidase inhibitors and methods of use” (ELC Management LLC, priority 2007, dated 2015).

Target: T1, α-glucosidase—Saccharomyces cerevisiae recombinant (Saccharomyces cerevisiae, UniProt P53341)
T1 construct: purchased Sigma G0660
Assay: alpha glucosidase inhibitory activity assay (release of p-nitrophenol from p-nitrophenyl-α-D-glucoside)
Format: biochemical
Conditions: end concentration in the well 0.8 mM; 'should cause about 50% inhibition'
Protocol: [drawing 1] wherein the α-glucosidase activity is measured by the release of p-nitrophenol, and as further set forth in Example 1.
Materials were tested for alpha glucosidase inhibitory activity as follows:
Materials: Standard laboratory equipment, 96 well half area plates with UV transparent bottom (Costar, 3679), 8 channel multi pipette (20 to 200 μl), and spectrophotometer, Spectra Max Plus (Molecular Devices).
Reagents: • (a) Distilled water • (b) Potassium dihydrogen phosphate • (c) Dimethylsulfoxide (Acros, 12779) • (d) α-glucosidase—Saccharomyces cerevisiae recombinant (min. 125 U/mg protein) (Sigma, G0660) • (e) p-nitrophenol-α-D-glucopyranoside (Sigma, N1377) • (f) Australine hydrochloride, castanospermum australe (Calbiochem, #189422) (reference inhibitor)
60 μl of reference inhibitor is needed per well)
Stock solution of the test sample is prepared using 142 mM potassium phosphate buffer (solubility of test sample can be improved using DMSO/potassium phosphate mixtures. The end concentration of DMSO should not exceed 1% v/v which corresponds to 1.66% DMSO in the sample stock solution. […]
Pipette with 8 channel multi-pipette 20 μl of the enzyme and mix well. […] The absorbance was measured at […].
For each concentration of potential inhibitor, the initial reaction velocity is calculated, being the initial slope of the absorbance vs. time data. […]

T1 sequence (P53341 whole entry): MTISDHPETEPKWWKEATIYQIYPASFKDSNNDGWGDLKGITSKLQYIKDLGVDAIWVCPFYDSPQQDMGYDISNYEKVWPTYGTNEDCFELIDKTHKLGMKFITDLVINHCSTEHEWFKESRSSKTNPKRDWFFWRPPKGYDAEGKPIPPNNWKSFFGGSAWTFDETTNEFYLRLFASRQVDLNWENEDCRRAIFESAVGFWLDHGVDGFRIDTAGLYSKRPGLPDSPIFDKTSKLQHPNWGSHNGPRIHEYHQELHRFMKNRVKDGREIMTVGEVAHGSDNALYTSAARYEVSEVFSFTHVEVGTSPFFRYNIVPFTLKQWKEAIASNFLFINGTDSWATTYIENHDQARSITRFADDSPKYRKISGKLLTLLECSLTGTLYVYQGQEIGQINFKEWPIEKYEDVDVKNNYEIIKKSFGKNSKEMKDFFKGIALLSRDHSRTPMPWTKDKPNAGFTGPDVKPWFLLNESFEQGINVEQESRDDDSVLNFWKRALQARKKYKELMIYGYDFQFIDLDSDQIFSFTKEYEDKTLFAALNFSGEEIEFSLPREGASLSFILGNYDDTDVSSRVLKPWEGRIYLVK

SMILES: Cl.OC[C@@H]1[C@@H](O)[C@H](O)[C@H]2[C@@H](O)CCN21 [Australine HCl, Australine hydrochloride]
- inhibition in the well (reference inhibitor): about 50%
